Values of other authors as cited in US20160008334A1, “Preparations for the Treatment of Sleep-Related Respiratory Disorders” (priority 2013, published 2016).

Conditions: compared with the barbiturate phenobarbital; one study (drugbank.ca DB00366)

Question: With `CN(C)CCOC(C)(c1ccccc1)c1ccccn1` (stereo not shown) [doxylamine succinate] as the compound, how does the “effectiveness for use as a sedative” value read?
Answer: more effective than the barbiturate phenobarbital
